Laboratory results taken from US20130131033A1, “PHARMACEUTICAL COMPOSITION FOR TREATMENT OF RESPIRATORY TRACT INFECTIONS” (priority 2010, published 2013).
In brackets after ≈: the same amount, converted by molar mass.

Tests used:
Format in all cases: cell-based
[1] = tested on: Streptococcus pneumoniae (MTCC 2672); test: Broth macrodilution method (MIC); settings: MTCC2672, individual drug alone, read-out: MIC (μg/ml) against Streptococcus pneumoniae
Protocol: (§1) […] LABS PVT. LTD. at its pre-clinical facility based at Chennai by Study No.: AMOX-538-09. The study report was generated on 1Mar. 2010. The study was conducted as per the approved study protocol.
(§2) The test substances used were three formulations, Formulation I, Formulation II and Formulation III prepared in accordance with Example 1, Example 2 and Example 3 respectively. […] The preparations and the method of the study were as per the approved protocol.

[2] = tested on: Streptococcus pyogenes (MTCC 442); test: Broth macrodilution method (MIC); settings: MTCC442, individual drug alone, read-out: MIC (μg/ml) against Streptococcus pyogenes
Protocol: as §1, §2

[3] = tested on: Streptococcus pneumoniae (MTCC 2672); test: Disc diffusion method (zone of inhibition)
Protocol: as §1, §2
(§3) The sensitivity of the test substances and the reference standards were interpreted as per the CLSI zone diameter interpretive standards shown in Table 3.

[4] = tested on: Streptococcus pyogenes (MTCC 442); test: Disc diffusion method (zone of inhibition)
Protocol: as §1, §2, §3

SMILES: CC1(C)S[C@@H]2[C@H](NC(=O)[C@H](N)c3ccc(O)cc3)C(=O)N2[C@H]1C(=O)O [Amoxycillin]
- MIC [1]: 0.063 µg/mL (≈ 0.172 µM)
- MIC [2]: 0.031 µg/mL (≈ 0.0848 µM)
- Zone Diameter Range (mm) S. pneumoniae ([3]; 8 μg/disc): 33-36 mm
- Zone Diameter Range (mm) S. pneumoniae ([3]; 16 μg/disc): 34-36 mm
- Zone Diameter Range (mm) S. pneumoniae ([3]; 32 μg/disc): 37-38 mm
- Zone Diameter Range (mm) S. pyogenes ([4]; 8 μg/disc): 32-33 mm
- Zone Diameter Range (mm) S. pyogenes ([4]; 16 μg/disc): 34-36 mm
- Zone Diameter Range (mm) S. pyogenes ([4]; 32 μg/disc): 37-39 mm
